Data: PMC11984388, “A brain-accessible peptide modulates stroke inflammatory response and neurotoxicity by targeting BDNF-receptor TrkB-T1 specific interactome” (Theranostics, 2025)

Experiment: Infarct volume after photothrombotic permanent ischemia
Format: in vivo, mice
Conditions: 24 h; for Decrease of infarct volume: versus TMyc, 3 nmol/g i.v. 1 h after damage
Procedure: Permanent focal ischemia was induced in cerebral cortex of adult male and female mice by microvascular photothrombosis as described with modifications. Brain injury involves vascular endothelium damage and platelet activation, followed by microvascular thrombotic occlusion of a particular region selected for illumination using a stereotaxic frame. Coordinates were +0.2 AP, +2 ML relative to Bregma and damaged area corresponded to primary motor and somatosensory cortex. For neuroprotection, a single dose (3 nmol/g) of peptides TMyc or TT1Ct (see below) was administered 1 h after damage initiation. Further details of the procedures, including measurement of infarct volume and evaluation of motor coordination and balance, are detailed as Supplementary material.
Antibodies, chemica ls and recombinant proteins, cell-penetrating peptides , prime rs , commercial as says , experimental models, recombinant DNAs and software ar e des cribe d in the Table S1, included as Supplementary material.
Animal procedures were performed follow ing Europea n Union Directive 2010/63/ EU and were approved by the CS I C and Comunidad de Ma drid (Ref PROEX 276.6/20) ethics committees.
Hous ing facilities were approved by Comunidad de Ma drid (#ES 280790000188) and conform to official regulations. Animals had sta ndard health and immune sta tus and were looked af ter by profes sional caretake rs daily. Ma l e and female mice were kept in groups of up to five in sta ndard IVC cage s while 1–2 pregnant rats occupied sta ndard cage s, always containing bedding and nes ting materials. Animals were under controlled lighting conditions (12 h light cycles ), relative humidity and temperature. Irradiated food and water were provided ad libitum.
We trie d to minimiz e animal suffering and reduce the number of sa cri f i ced animals .
Mi c e model of isc he mia by microv ascular photothr ombosis to study in vivo excitotoxicity This model of permanent focal isc hemia mimics embolic or thrombotic occlus ion of sm a ll ar ter ie s, which is freque ntly found in human stroke, and caus es a focal brain damage with histological and MR I corre lations to human patterns. The procedure was as previously des cribe d with some modific ations . Ma l e and female Ba lb/c OlaHsd mice (23–31 g; 10–16 weeks of age; Envigo Rms , Spain S.L.) were allowed to acc limatize to our facilities for at least 1 week af ter delivery, before isc hemic induction. They were kept with the sa m e cage mates, and daily examined to chec k their health sta tus . Mi c e were anes thetized with isoflurane (5% for induction, 2% for maintenance in oxygen; Abbot Labora tories , Ma drid, Spain) and then placed in a ste reotaxic frame (Naris hige Group, Tokyo, Ja pan). Body temperature was maintained at 36–37°C using a se l f-regulating heating blanket (Cibertec, Ma drid, Spain). A midline sc al p incision was made, the skull was expos ed, and both Bregma and Lambda points were identifie d.
A cold- light (Sc hott KL 2500 LCD; Schott Glas s, Ma inz, Germany) with a fibre optic bundle of 1.5 mm in diameter was centred using a micromanipula tor on the right side , at 0.2 mm anterior and 2.0 mm lateral (+0.2 AP, +2 ML ) relative to Bregma. […] Five minutes later, the brain was illumina ted (600 lms, 3,000 K) through the intact […]
skull for 10 min. Br ain injury encompas se s damage to vas cular endothelium, platelet activation, and subs equent microvascula r thrombotic occlus ion of the irradiate d region. The ar eas underneath this ste reotaxic position that result irradiate d ar e the prima ry motor cortex and the prima ry soma tos ens ory cortex (hindlimb and forelimb). Once completed surgery, the incision was sutured, and mice were allowed to recover. […]

Ac-YGRKKRRQRRRPPFVLFHKIPLDG-NH2 [TT1Ct]
Decrease of infarct volume (female mice): 42% | Infarct volume (%) (male + female mice, 3 nmol/g i.v. 1 h after damage induction, TTC, relative to hemisphere volume, mean ± SEM, n = 19, n = 20): 10 ± 1% | Decrease of infarct volume (male mice): 45%
